Read-outs that look alike come from different tables or passages of the source.
Key:
[1] = target: PI3K-beta (Homo sapiens, UniProt P42338); assay: PI3K-beta fluorescence polarization assay; format: biochemical; conditions: read-out: PI3Kβ Avg. IC50
In short: (§1)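 Inhibition is derived from a polarization signal: after a 1 h, 25° C kinase step (25 μM ATP, 2.5 μM diC8-PIP2, pH 7), EDTA stops the reaction and the GRP1 PH domain/TMR-IP4 pair reports lipid product.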

[2] = target: PI3K-gamma (Homo sapiens, UniProt P48736); assay: PI3K-gamma fluorescence polarization assay; format: biochemical; conditions: PI3Kγ Avg. IC50
In short: as §1

[3] = target: PI3K-alpha (Homo sapiens, UniProt P42336); assay: PI3K-alpha fluorescence polarization assay; format: biochemical; conditions: read-out: PI3Kα Avg. IC50
[4] = target: PI3K-delta (Homo sapiens, UniProt O00329); assay: PI3K-delta fluorescence polarization assay; format: biochemical; conditions: read-out: PI3Kδ Avg. IC50
[5] = target: T1, human TOR (Homo sapiens, UniProt P42345); assay: mTOR enzyme assay (DELFIA, His6-S6K substrate); format: biochemical; conditions: read-out: mTOR Kinase Avg. IC50
T1 construct: FLAG

[6] = system: human tumor xenograft models; conditions: cited from earlier work
[7] = system: acute lymphoblastic leukemia; conditions: in vivo; cited from earlier work
[8] = target: mTOR (Homo sapiens, UniProt P42345); conditions: mTOR enzymes; cited from earlier work

Chain of PI3K-delta (O00329 whole entry, species assumed): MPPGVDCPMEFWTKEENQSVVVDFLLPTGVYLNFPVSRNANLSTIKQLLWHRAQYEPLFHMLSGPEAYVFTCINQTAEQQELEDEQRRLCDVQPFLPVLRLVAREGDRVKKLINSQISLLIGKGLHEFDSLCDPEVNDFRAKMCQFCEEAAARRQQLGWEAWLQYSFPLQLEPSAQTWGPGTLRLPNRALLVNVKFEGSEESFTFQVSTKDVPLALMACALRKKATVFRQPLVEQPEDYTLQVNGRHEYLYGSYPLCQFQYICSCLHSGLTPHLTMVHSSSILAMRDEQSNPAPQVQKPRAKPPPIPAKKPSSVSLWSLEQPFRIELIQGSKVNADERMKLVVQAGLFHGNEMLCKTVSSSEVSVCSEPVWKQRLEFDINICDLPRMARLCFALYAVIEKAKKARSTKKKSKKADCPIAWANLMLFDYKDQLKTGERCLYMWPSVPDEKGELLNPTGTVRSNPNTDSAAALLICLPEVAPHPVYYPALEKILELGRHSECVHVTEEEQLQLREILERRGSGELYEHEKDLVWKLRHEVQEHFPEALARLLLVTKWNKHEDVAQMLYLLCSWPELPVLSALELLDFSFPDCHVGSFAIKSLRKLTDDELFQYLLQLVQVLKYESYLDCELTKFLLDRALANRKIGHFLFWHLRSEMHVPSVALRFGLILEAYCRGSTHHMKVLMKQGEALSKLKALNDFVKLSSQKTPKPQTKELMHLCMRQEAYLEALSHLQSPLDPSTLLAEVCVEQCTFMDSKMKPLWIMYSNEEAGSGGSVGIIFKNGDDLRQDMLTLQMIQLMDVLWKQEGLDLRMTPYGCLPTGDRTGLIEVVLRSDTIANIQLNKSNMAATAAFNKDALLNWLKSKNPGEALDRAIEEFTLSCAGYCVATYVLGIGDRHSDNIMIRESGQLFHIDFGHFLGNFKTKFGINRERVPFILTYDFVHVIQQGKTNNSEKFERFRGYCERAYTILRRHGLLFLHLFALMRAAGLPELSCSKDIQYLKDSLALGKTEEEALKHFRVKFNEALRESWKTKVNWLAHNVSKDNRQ
Chain of PI3K-delta (P27986 whole entry partner, species assumed): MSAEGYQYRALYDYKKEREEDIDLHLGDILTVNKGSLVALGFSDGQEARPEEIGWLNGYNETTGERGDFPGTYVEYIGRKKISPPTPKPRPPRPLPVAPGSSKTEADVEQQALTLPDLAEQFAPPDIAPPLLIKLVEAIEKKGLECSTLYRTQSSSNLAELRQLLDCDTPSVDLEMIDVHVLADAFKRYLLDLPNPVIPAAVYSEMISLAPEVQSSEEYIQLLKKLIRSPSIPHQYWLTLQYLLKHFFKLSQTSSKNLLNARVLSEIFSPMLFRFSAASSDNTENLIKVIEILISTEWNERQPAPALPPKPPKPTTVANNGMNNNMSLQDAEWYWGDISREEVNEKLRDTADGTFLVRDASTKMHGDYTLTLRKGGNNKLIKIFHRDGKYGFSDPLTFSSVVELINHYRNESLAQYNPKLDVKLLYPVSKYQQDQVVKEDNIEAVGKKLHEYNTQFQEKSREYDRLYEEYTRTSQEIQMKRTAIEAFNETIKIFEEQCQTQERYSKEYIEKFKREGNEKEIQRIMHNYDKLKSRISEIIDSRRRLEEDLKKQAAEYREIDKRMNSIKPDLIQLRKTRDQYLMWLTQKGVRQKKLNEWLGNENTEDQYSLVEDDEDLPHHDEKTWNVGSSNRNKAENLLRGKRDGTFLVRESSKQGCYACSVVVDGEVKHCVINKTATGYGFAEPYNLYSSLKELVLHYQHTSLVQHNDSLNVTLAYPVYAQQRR
Chain of PI3K-gamma (P48736 whole entry, species assumed): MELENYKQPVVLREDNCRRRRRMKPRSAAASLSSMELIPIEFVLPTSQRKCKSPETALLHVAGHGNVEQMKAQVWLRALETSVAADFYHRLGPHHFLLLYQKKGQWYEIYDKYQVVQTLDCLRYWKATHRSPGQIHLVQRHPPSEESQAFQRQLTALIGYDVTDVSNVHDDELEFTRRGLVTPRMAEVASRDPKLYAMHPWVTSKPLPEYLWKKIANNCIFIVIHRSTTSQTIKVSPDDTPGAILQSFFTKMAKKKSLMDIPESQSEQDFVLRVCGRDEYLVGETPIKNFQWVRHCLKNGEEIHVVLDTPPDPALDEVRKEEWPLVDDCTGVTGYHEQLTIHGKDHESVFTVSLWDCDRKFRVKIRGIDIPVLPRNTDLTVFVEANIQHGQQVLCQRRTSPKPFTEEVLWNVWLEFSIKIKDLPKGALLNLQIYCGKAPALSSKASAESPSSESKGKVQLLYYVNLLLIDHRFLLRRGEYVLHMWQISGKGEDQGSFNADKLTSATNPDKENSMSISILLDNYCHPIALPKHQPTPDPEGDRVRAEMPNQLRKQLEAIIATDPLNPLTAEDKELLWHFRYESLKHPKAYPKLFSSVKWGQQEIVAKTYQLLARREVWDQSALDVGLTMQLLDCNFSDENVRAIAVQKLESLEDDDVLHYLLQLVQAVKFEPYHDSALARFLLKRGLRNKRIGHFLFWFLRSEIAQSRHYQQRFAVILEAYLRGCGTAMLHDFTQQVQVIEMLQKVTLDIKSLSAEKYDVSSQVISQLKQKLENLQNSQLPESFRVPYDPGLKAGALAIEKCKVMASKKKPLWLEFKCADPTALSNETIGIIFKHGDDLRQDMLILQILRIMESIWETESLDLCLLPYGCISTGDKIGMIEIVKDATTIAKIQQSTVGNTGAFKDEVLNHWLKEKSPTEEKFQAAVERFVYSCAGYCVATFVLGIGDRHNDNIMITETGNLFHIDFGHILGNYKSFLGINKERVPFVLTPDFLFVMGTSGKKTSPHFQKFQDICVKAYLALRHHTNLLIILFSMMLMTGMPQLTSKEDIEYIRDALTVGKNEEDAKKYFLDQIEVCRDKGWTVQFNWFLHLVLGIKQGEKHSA
Chain of PI3K-beta (P42338 whole entry, species assumed, the tested form may be a part): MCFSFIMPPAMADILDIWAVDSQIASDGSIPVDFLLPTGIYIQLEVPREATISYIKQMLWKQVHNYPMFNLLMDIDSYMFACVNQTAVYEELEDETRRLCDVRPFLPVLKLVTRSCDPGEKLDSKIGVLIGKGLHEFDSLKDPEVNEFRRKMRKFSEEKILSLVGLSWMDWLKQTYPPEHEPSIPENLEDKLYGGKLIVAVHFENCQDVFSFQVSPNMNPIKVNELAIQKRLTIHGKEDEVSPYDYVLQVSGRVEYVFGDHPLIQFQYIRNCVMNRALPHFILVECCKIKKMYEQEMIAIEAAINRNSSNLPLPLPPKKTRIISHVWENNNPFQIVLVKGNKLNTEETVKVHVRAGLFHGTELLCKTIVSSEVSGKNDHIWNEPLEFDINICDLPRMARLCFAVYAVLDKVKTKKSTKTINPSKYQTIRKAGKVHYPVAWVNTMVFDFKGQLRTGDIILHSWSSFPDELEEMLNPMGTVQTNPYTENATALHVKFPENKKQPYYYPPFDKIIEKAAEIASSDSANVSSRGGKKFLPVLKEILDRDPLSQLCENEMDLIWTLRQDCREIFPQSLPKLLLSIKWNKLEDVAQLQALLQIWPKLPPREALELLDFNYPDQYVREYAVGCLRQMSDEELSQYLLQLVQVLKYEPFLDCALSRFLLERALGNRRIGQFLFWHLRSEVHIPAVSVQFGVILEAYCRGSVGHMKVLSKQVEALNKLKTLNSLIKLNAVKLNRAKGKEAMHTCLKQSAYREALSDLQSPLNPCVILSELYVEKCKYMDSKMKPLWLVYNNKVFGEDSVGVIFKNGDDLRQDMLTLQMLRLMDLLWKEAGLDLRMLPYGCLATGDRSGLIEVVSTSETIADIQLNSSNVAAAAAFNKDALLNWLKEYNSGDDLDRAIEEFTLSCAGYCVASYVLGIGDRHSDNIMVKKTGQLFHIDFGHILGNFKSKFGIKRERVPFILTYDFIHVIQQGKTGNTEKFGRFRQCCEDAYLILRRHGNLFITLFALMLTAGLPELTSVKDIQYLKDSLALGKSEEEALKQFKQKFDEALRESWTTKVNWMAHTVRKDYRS
Chain of PI3K-beta (P27986 whole entry partner, species assumed, the tested form may be a part): as the sequence (P27986 whole entry partner, species assumed) above
Chain of PI3K-alpha (P42336 whole entry, species assumed): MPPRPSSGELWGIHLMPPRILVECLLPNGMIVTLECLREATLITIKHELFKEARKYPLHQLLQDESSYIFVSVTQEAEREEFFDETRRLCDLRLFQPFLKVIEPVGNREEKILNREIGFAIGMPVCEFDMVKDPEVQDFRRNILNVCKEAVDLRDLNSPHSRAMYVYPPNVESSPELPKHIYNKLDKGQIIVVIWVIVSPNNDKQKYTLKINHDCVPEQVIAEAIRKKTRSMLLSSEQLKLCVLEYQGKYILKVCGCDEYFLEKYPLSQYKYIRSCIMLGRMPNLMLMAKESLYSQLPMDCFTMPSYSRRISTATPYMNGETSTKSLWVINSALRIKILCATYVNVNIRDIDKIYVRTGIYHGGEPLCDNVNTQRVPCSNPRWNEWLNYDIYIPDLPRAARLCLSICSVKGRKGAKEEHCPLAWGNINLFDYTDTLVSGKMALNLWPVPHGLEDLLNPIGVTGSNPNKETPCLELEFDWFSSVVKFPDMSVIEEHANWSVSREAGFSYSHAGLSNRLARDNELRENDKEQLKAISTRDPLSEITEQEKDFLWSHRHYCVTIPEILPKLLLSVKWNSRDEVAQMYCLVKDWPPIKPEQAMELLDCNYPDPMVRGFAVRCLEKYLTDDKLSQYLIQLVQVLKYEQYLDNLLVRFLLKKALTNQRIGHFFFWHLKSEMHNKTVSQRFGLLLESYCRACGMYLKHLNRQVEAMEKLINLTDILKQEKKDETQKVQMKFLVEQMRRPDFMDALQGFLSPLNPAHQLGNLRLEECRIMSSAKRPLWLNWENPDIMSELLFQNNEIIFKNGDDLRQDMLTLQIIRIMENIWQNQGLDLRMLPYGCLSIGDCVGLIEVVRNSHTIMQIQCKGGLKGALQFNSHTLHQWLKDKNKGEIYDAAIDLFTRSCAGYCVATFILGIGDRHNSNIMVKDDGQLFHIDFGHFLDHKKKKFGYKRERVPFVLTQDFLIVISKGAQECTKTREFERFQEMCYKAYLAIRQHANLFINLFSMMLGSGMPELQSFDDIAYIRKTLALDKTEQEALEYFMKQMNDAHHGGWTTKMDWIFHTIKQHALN
Chain of PI3K-alpha (P27986 whole entry partner, species assumed): as the sequence (P27986 whole entry partner, species assumed) above

| SMILES | IC50 [1] [nM] | IC50 [2] [nM] | IC50 [3] [nM] | IC50 [4] [nM] | IC50 [5] [nM] | melting point | activity in human tumor xenograft models ([6]; prostrate (PC-3) and glioblastoma (U-87)) | activity in human tumor xenograft models ([6]; I.P. dosing in mice, U87MG, PC3, MDA-MB-468, MDA-MB-435, HCT 116, SKOV3, IGROV-1) | activity in NOS/SCID xenograft mouse model of acute lymphoblastic leukemia [7] | tumor growth in mouse human xenograft cancer models ([6]; chronic oral administration, 400 mg/kg, A549, PC-3, WiDr) | IC50 [8] [nM] |
| --- | --- | --- | --- | --- | --- | --- | --- | --- | --- | --- | --- |
| COc1ccc2c(c1)c(/C=C1\Oc3cc(O)c(Br)cc3C1=O)c(C)n2CCN1CCN(C)CC1 [Example 349, (2Z)-5-Bromo-6-hydroxy-2-({5-methoxy-2-methyl-1-[2-(4-methylpiperazin-1-yl)ethyl]-1H-indol-3-yl}methylene)-1-benzofuran-3(2H)-one] | 931 | 5590 | 82.5 | 19 | > 20000 |  |  |  |  |  |  |
| COc1ccc2c(c1)c(/C=C1\Oc3cc(O)ccc3C1=O)c(C1CC1)n2CCn1cccn1 [Example 355, (2Z)-2-({2-Cyclopropyl-5-methoxy-1-[2-(1H-pyrazol-1-yl)ethyl]-1H-indol-3-yl}methylene)-6-hydroxy-1-benzofuran-3(2H)-one] | 17 | 36 | 8.6 | 2.5 | 13 |  |  |  |  |  |  |
| COc1ccc2c(c1)c(/C=C1\Oc3cc(O)ccc3C1=O)c(C)n2CCCN1CCCC1 [Example 356, (2Z)-6-Hydroxy-2-{[5-methoxy-2-methyl-1-(3-pyrrolidin-1-ylpropyl)-1H-indol-3-yl]methylene}-1-benzofuran-3(2H)-one] | 116 | 408 | 15.5 | 1.2 | > 800 |  |  |  |  |  |  |
| COc1ccc2[nH]c(-c3c(C)noc3C)c(/C=C3\Oc4cc(O)cc(O)c4C3=O)c2c1 [Example 360, (2Z)-2-{[2-(3,5-Dimethylisoxazol-4-yl)-5-methoxy-1H-indol-3-yl]methylene}-4,6-dihydroxy-1-benzofuran-3(2H)-one] | 1.3 | 3.2 | 1.5 | 0.3 | 1.25 |  |  |  |  |  |  |
| COc1ccc(-c2cccc3c2c(/C=C2\Oc4cc(O)cc(O)c4C2=O)cn3C)cc1 [Example 376, (2Z)-4,6-dihydroxy-2-{[4-(4-methoxyphenyl)-1-methyl-1H-indol-3-yl]methylene}benzofuran-3(2H)-one] |  | 3800 | 2080 |  | 128 | 289 to 291 °C (dec.) |  |  |  |  |  |
| COc1cc(OC)c2c(c1)O/C(=C\c1c(-c3ccccc3)n(C)c3ccccc13)C2=O [Example 409, (2Z)-4,6-dimethoxy-2-[(1-methyl-2-phenyl-1H-indol-3-yl)methylene]benzofuran-3(2H)-one] |  | 1990 | > 10000 |  | > 20000 | 257 to 258 °C |  |  |  |  |  |
| Cn1c(=O)n(-c2ccc(C(C)(C)C#N)cc2)c2c3cc(-c4cnc5ccccc5c4)ccc3ncc21 [NVP-BEZ-235, 2-methyl-2-(4-(3-methyl-2-oxo-8-(quinolin-3-yl)-2,3-dihydro-1H-imidazo[4,5-c]quinolin-1-yl)phenyl)propanenitrile] |  |  |  |  |  |  | demonstrated activity |  |  |  |  |
| Oc1cccc(-c2nc(N3CCOCC3)c3oc4ncccc4c3n2)c1 [PI103, 3-(4-(4-morpholinyl)pyrido[3′,2′:4,5]furo[3,2-d]pyrimidin-2-yl)phenol] |  |  |  |  |  |  |  | demonstrated activity |  |  |  |
| CO[C@H]1C[C@@H]2CC[C@@H](C)[C@@](O)(O2)C(=O)C(=O)N2CCCC[C@H]2C(=O)O[C@H]([C@H](C)C[C@@H]2CC[C@@H](OC(=O)C(C)(CO)CO)[C@H](OC)C2)CC(=O)[C@H](C)/C=C(\C)[C@@H](O)[C@@H](OC)C(=O)[C@H](C)C[C@H](C)/C=C/C=C/C=C/1C [Torisel] |  |  |  |  |  |  |  |  | active |  |  |
| FC(F)c1nc2ccccc2n1-c1nc(N2CCOCC2)nc(N2CCOCC2)n1 [ZSTK474, 2-(2-difluoromethylbenzoimidazol-1-yl)-4,6-dimorpholino-1,3,5-triazine] |  |  |  |  |  |  |  |  |  | completely inhibited growth | > 10000 |

Continued, in another order:

| IC50 [1] [nM] | IC50 [2] [nM] | IC50 [3] [nM] | IC50 [4] [nM] | IC50 [5] [nM] | melting point | SMILES | activity in human tumor xenograft models ([6]; prostrate (PC-3) and glioblastoma (U-87)) | activity in human tumor xenograft models ([6]; I.P. dosing in mice, U87MG, PC3, MDA-MB-468, MDA-MB-435, HCT 116, SKOV3, IGROV-1) | activity in NOS/SCID xenograft mouse model of acute lymphoblastic leukemia [7] | tumor growth in mouse human xenograft cancer models ([6]; chronic oral administration, 400 mg/kg, A549, PC-3, WiDr) | IC50 [8] [nM] |
| --- | --- | --- | --- | --- | --- | --- | --- | --- | --- | --- | --- |
| 100 | 692 | 24 | 2 | > 4000 |  | COc1ccc2c(c1)c(/C=C1\Oc3cc(O)ccc3C1=O)c(C(=O)N(C)C)n2CCCN(C)C [Example 345, 1-[3-(Dimethylamino)propyl]-3-[(Z)-(6-hydroxy-3-oxo-1-benzofuran-2(3H)-ylidene)methyl]-5-methoxy-N,N-dimethyl-1H-indole-2-carboxamide] |  |  |  |  |  |
| 7.7 | 55 | 6.1 | 3 | 77 |  | COc1ccc2[nH]c(CN3CCN(C)CC3)c(/C=C3\Oc4cc(O)cc(O)c4C3=O)c2c1 [Example 346, (2Z)-4,6-Dihydroxy-2-({5-methoxy-2-[(4-methylpiperazin-1-yl)methyl]-1H-indol-3-yl}methylene)-1-benzofuran-3(2H)-one] |  |  |  |  |  |
| 76.5 | 60.5 | 11.5 | 12.5 | 17.5 |  | COc1ccc2c(c1)c(/C=C1\Oc3cc(O)cc(O)c3C1=O)c(C(=O)N(C)C)n2CCO [Example 348, 3-[(Z)-(4,6-Dihydroxy-3-oxo-1-benzofuran-2(3H)-ylidene)methyl]-1-(2-hydroxyethyl)-5-methoxy-N,N-dimethyl-1H-indole-2-carboxamide] |  |  |  |  |  |
| 505 | 3270 | 66 | 9 | > 800 |  | COc1ccc2c(c1)c(/C=C1\Oc3cc(O)c(F)cc3C1=O)c(C)n2CCN1CCN(C)CC1 [Example 351, (2Z)-5-Fluoro-6-hydroxy-2-({5-methoxy-2-methyl-1-[2-(4-methylpiperazin-1-yl)ethyl]-1H-indol-3-yl}methylene)-1-benzofuran-3(2H)-one] |  |  |  |  |  |
| 8 | 38 | 4 | 2 | 22 |  | COc1ccc2[nH]c(CN(C)C)c(/C=C3\Oc4cc(O)cc(O)c4C3=O)c2c1 [Example 353, (2Z)-2-({2-[(Dimethylamino)methyl]-5-methoxy-1H-indol-3-yl}methylene)-4,6-dihydroxy-1-benzofuran-3(2H)-one] |  |  |  |  |  |
| 44 | 55 | 6.5 | 14.5 | 18 |  | COc1ccc2[nH]c(-c3cncnc3)c(/C=C3\Oc4cc(O)cc(O)c4C3=O)c2c1 [Example 354, (2Z)-4,6-Dihydroxy-2-[(5-methoxy-2-pyrimidin-5-yl-1H-indol-3-yl)methylene]-1-benzofuran-3(2H)-one] |  |  |  |  |  |
| 98.5 | 322 | 11 | < 1 | > 800 |  | COc1ccc2c(c1)c(/C=C1\Oc3cc(O)ccc3C1=O)c(C)n2CCCN1CCCCC1 [Example 357, (2Z)-6-Hydroxy-2-{[5-methoxy-2-methyl-1-(3-piperidin-1-ylpropyl)-1H-indol-3-yl]methylene}-1-benzofuran-3(2H)-one] |  |  |  |  |  |
| 95.5 | 239 | 7.5 | < 1 | > 800 |  | COc1ccc2c(c1)c(/C=C1\Oc3cc(O)ccc3C1=O)c(C)n2CCCN1CCCCCC1 [Example 358, (2Z)-2-{[1-(3-Azepan-1-ylpropyl)-5-methoxy-2-methyl-1H-indol-3-yl]methylene}-6-hydroxy-1-benzofuran-3(2H)-one] |  |  |  |  |  |
| 18.5 | 232 | 11 | 1.5 | > 800 |  | COc1ccc2c(c1)c(/C=C1\Oc3cc(O)cc(F)c3C1=O)c(C)n2CCN1CCN(C)CC1 [Example 359, (2Z)-4-Fluoro-6-hydroxy-2-({5-methoxy-2-methyl-1-[2-(4-methylpiperazin-1-yl)ethyl]-1H-indol-3-yl}methylene)-1-benzofuran-3(2H)-one] |  |  |  |  |  |
| 8 | 329 | 10.5 | 1.5 | 210 |  | COc1ccc2c(c1)c(/C=C1\Oc3cc(O)ccc3C1=O)c(C1CC1)n2CCN1CCN(C)CC1 [Example 362, (2Z)-2-({2-Cyclopropyl-5-methoxy-1-[2-(4-methylpiperazin-1-yl)ethyl]-1H-indol-3-yl}methylene)-6-hydroxy-1-benzofuran-3(2H)-one] |  |  |  |  |  |
|  | > 10000 | > 10000 |  | > 20000 | 221 to 223 °C | COc1cc(O)c2c(c1)O/C(=C\c1c(-c3ccccc3)n(C)c3ccccc13)C2=O [Example 421, (2Z)-4-hydroxy-6-methoxy-2-[(1-methyl-2-phenyl-1H-indol-3-yl)methylene]benzofuran-3(2H)-one] |  |  |  |  |  |

From patent US20090311217A1, “3-SUBSTITUTED-1H-INDOLE COMPOUNDS, THEIR USE AS MTOR KINASE AND PI3 KINASE INHIBITORS, AND THEIR SYNTHESES” (priority 2008, published 2009)
